# Assay results taken from article PMC12028158, “Synthesis and In Vitro Evaluation of the Anticancer Effect of Novel Phosphonium Vindoline Derivatives” (International Journal of Molecular Sciences, 2025).
# Legend:
# Type in all cases: cell-based
# [1] = test system: NCI-H23; experiment: NCI60 one-dose screen; details: Homo sapiens, NCI-H23, read-out: Growth percent
# [2] = test system: 60 human tumor cell lines (NCI60); experiment: NCI60 one-dose screen, overall mean; details: for activity at 10 µM: Homo sapiens, 60 cell, read-out: Mean growth percent; for average reduction / average cell death: one-dose, 10 µM, average over cell lines
# [3] = test system: SK-OV-3; experiment: NCI60 one-dose screen; details: Homo sapiens, SK-OV-3, read-out: Growth percent
# [4] = test system: HCC-2998; experiment: NCI60 five-dose screen; details: Homo sapiens, HCC 2998
# [5] = test system: ACHN; experiment: NCI60 five-dose screen; details: Homo sapiens
# [6] = test system: M14; experiment: NCI60 five-dose screen; details: Homo sapiens, M14
# [7] = test system: MDA-MB-468; experiment: NCI60 one-dose screen; details: Homo sapiens, MDA-MB-468, read-out: Growth percent
# [8] = test system: HL-60(TB); experiment: NCI60 five-dose screen; details: Homo sapiens, HL-60
# [9] = test system: UACC-257; experiment: NCI60 five-dose screen; details: Homo sapiens, UACC-257
# [10] = test system: Melanoma panel; experiment: NCI60 five-dose screen, panel mean; details: Homo sapiens, read-out: GI50 Mean
# [11] = test system: OVCAR-4; experiment: NCI60 one-dose screen; details: Homo sapiens, OVCAR-4, read-out: Growth percent
# [12] = test system: A549/ATCC; experiment: NCI60 five-dose screen; details: Homo sapiens, A549
# [13] = test system: OVCAR-5; experiment: NCI60 five-dose screen; details: Homo sapiens, OVCAR-5
# [14] = test system: HT29; experiment: NCI60 one-dose screen; details: Homo sapiens, HT-29, read-out: Growth percent
# [15] = test system: HOP-92; experiment: NCI60 five-dose screen; details: Homo sapiens, HOP-92
# [16] = test system: NCI-H226; experiment: NCI60 one-dose screen; details: Homo sapiens, NCI-H226, read-out: Growth percent
# [17] = test system: NCI-H522; experiment: NCI60 one-dose screen; details: Homo sapiens, NCI-H522, read-out: Growth percent
# [18] = test system: CAKI-1; experiment: NCI60 five-dose screen; details: Homo sapiens, CAKI-1
# [19] = test system: HCT-15; experiment: NCI60 one-dose screen; details: Homo sapiens, HCT-15, read-out: Growth percent
# [20] = test system: Renal Cancer panel; experiment: NCI60 five-dose screen, panel mean; details: Homo sapiens, read-out: GI50 Mean
# [21] = test system: 786-0; experiment: NCI60 one-dose screen; details: Homo sapiens, 786-0, read-out: Growth percent
# [22] = test system: TK-10; experiment: NCI60 one-dose screen; details: Homo sapiens, TK-10, read-out: Growth percent
# [23] = test system: U251; experiment: NCI60 five-dose screen; details: Homo sapiens, U-251
# [24] = test system: RXF 393; experiment: NCI60 five-dose screen; details: Homo sapiens, RXF 393
# [25] = test system: MDA-MB-435; experiment: NCI60 five-dose screen; details: Homo sapiens, MDA-MB-435
# [26] = test system: DU-145; experiment: NCI60 one-dose screen; details: Homo sapiens, DU-145, read-out: Growth percent
# [27] = test system: A498; experiment: NCI60 five-dose screen; details: Homo sapiens, A498
# [28] = test system: SK-MEL-2; experiment: NCI60 one-dose screen; details: Homo sapiens, SK-MEL-2, read-out: Growth percent
# [29] = test system: T-47D; experiment: NCI60 one-dose screen; details: Homo sapiens, T47D, read-out: Growth percent
# [30] = test system: SK-OV-3; experiment: NCI60 five-dose screen; details: Homo sapiens, SK-OV-3
# [31] = test system: MALME-3M; experiment: NCI60 one-dose screen; details: Homo sapiens, Malme-3M, read-out: Growth percent
# [32] = test system: LOX IMVI; experiment: NCI60 one-dose screen; details: Homo sapiens, read-out: Growth percent
# [33] = test system: NCI-H460; experiment: NCI60 five-dose screen; details: Homo sapiens, NCI-H460
# [34] = test system: MOLT-4; experiment: NCI60 five-dose screen; details: Homo sapiens, MOLT-4
# [35] = test system: SW-620; experiment: NCI60 one-dose screen; details: Homo sapiens, SW-620, read-out: Growth percent
# [36] = test system: HOP-92; experiment: NCI60 one-dose screen; details: Homo sapiens, HOP-92, read-out: Growth percent
# [37] = test system: MDA-MB-231/ATCC; experiment: NCI60 one-dose screen; details: Homo sapiens, MDA-MB-231, read-out: Growth percent
# [38] = test system: NCI-H522; experiment: NCI60 five-dose screen; details: Homo sapiens, NCI-H522
# [39] = test system: RPMI-8226; experiment: NCI60 one-dose screen; details: Homo sapiens, RPMI-8226, read-out: Growth percent
# [40] = test system: Non-small Cell Lung Cancer panel; experiment: NCI60 five-dose screen, panel mean; details: Homo sapiens, read-out: GI50 Mean
# [41] = test system: KM12; experiment: NCI60 five-dose screen; details: Homo sapiens, KM12
# [42] = test system: OVCAR-5; experiment: NCI60 one-dose screen; details: Homo sapiens, OVCAR-5, read-out: Growth percent
# [43] = test system: OVCAR-4; experiment: NCI60 five-dose screen; details: Homo sapiens, OVCAR-4
# [44] = test system: SK-MEL-28; experiment: NCI60 five-dose screen; details: Homo sapiens, SK-MEL-28
# [45] = test system: COLO 205; experiment: NCI60 one-dose screen; details: Homo sapiens, COLO 205, read-out: Growth percent
smiles,measurement,setting,value
CC[C@]12C=CCN3CC[C@@]4(c5ccc(OC)cc5N(C)[C@H]4[C@@](O)(C(=O)OC)[C@@H]1OC(=O)CCCC[P+](c1ccc(C)cc1)(c1ccc(C)cc1)c1ccc(C)cc1)[C@@H]32 [10a],activity at 10 µM,[1],-92.4%
same,activity at 10 µM,[2],-78.7%
same,average reduction / average cell death,[2],more than 70%
same,activity at 10 µM,[3],-82.3%
same,GI50,[4],520 nM
same,GI50,[5],2540 nM
same,GI50,[6],1110 nM
same,activity at 10 µM,[7],-92.5%
same,GI50,[8],221 nM
same,GI50,[9],817 nM
same,GI50,[10],920 nM
same,activity at 10 µM,[11],-68.9%
same,GI50,[12],819 nM
same,GI50,[13],1440 nM
same,activity at 10 µM,[14],-81.8%
same,GI50,[15],490 nM
same,activity at 10 µM,[16],-78.6%
same,activity at 10 µM,[17],-82.7%
same,GI50,[18],7460 nM
same,activity at 10 µM,[19],-90.1%
same,GI50,[20],2340 nM
same,activity at 10 µM,[21],-91%
same,activity at 10 µM,[22],-91.2%
same,GI50,[23],470 nM
same,GI50,[24],468 nM
same,GI50,[25],678 nM
same,activity at 10 µM,[26],-84.5%
same,GI50,[27],2170 nM
same,activity at 10 µM,[28],-87.2%
same,activity at 10 µM,[29],-64.5%
same,GI50,[30],1040 nM
same,activity at 10 µM,[31],-96%
same,activity at 10 µM,[32],-94.5%
same,GI50,[33],600 nM
same,GI50,[34],611 nM
same,activity at 10 µM,[35],-88.2%
same,activity at 10 µM,[36],-77.9%
same,activity at 10 µM,[37],-97.2%
same,GI50,[38],306 nM
same,activity at 10 µM,[39],-46%
same,GI50,[40],1070 nM
same,GI50,[41],596 nM
same,activity at 10 µM,[42],-96%
same,GI50,[43],1090 nM
same,GI50,[44],485 nM
same,activity at 10 µM,[45],-64.1%
CC[C@]12C=CCN3CC[C@@]4(c5ccc(OC)cc5N(C)[C@H]4[C@@](O)(C(=O)OC)[C@@H]1OC(=O)CCCC[P+](c1ccc(OC)cc1)(c1ccc(OC)cc1)c1ccc(OC)cc1)[C@@H]32 [10b],activity at 10 µM,[1],-90.7%
same,activity at 10 µM,[2],-70.4%
same,average reduction / average cell death,[2],more than 70%
same,activity at 10 µM,[3],-82.5%
same,GI50,[4],617 nM
same,GI50,[5],6280 nM
same,GI50,[6],1200 nM
same,activity at 10 µM,[7],-92.7%
same,GI50,[8],234 nM
same,GI50,[9],792 nM
same,GI50,[10],980 nM
same,activity at 10 µM,[11],-37.7%
same,GI50,[12],1650 nM
same,GI50,[13],2130 nM
same,activity at 10 µM,[14],-63.1%
same,GI50,[15],520 nM
same,activity at 10 µM,[16],-63.6%
same,activity at 10 µM,[17],-81.9%
same,GI50,[18],15200 nM
same,activity at 10 µM,[19],-5.69%
same,GI50,[20],4340 nM
same,activity at 10 µM,[21],-92.9%
same,activity at 10 µM,[22],-88.2%
same,GI50,[23],392 nM
same,GI50,[24],524 nM
same,GI50,[25],521 nM
same,activity at 10 µM,[26],-58.2%
same,GI50,[27],2930 nM
same,activity at 10 µM,[28],-91.4%
same,activity at 10 µM,[29],-46.6%
same,GI50,[30],1400 nM
same,activity at 10 µM,[31],-97.2%
same,activity at 10 µM,[32],-96.4%
same,GI50,[33],1150 nM
same,GI50,[34],1180 nM
same,activity at 10 µM,[35],-88.7%
same,activity at 10 µM,[36],-74.5%
same,activity at 10 µM,[37],-97.4%
same,GI50,[38],341 nM
same,activity at 10 µM,[39],-68.8%
same,GI50,[40],1360 nM
same,GI50,[41],675 nM
same,activity at 10 µM,[42],-98.6%
same,GI50,[43],1570 nM
same,GI50,[44],486 nM
same,activity at 10 µM,[45],-64.9%
